We go through two molecules from patent EP1158000A1, “Crystal structure data of cystalysin and use thereof for the design and preparation of inhibitor molecules” (priority 2000, dated 2001).

As usually defined, the Km is the substrate concentration at which the rate is half of its maximum.

In test [1] the test system is cystalysin. The test is described as follows: Spectral measurement of cystalysin after treatment with AVG. Type of test: biochemical, Treponema denticola. Conditions: chromophore at 336 nm formed simultaneously, spectra at 20°C in 100 mM phosphate buffer. As for the experimental part: PLP-dependent enzymes catalyzing β-elimination reactions are known to be inhibited by a number of β,γ-unsaturated amino acids like the natural toxins rhizobitoxin (Owens et al., 1968) and L-aminoethoxyvinylglycine (AVG) (Pruess et al., 1974), that act as so-called slow-binding inhibitors (Morrison and Walsh, 1988). […] Spectral and fluorescence measurements lead to similar observations for cystalysin after incubation with AVG (Figure 4A). […] The inhibitor is mainly bound by hydrogen bonds to its carboxylate oxygens which originate from Ala39, Asn 175 and Arg369 (Figure 4C). […] Hydrophobic interactions are with Tyr64* and Phe273* which are in van-der-Waals contact to the carbon atoms CFI, CEI and CGI. Contrary for CBL, the amino-tail of the inhibitor is not bound to Tyr123, but stretched out in opposite direction towards a large hydrophobic cavity formed by the residues Leu17, Val38, Typ64* and Phe273* that is absent in CBL. […]
(A) The spectra of uncomplexed cystalysin and cystalysin after treatment with AVG, recorded at 20°C in 100 mM phosphate buffer. (B) Final 2Fo-Fc electron density of the PLP-AVG complex (yellow) and the intermediate protein vicinity (color-coding by atom type), contoured at 1.2 σ and calculated at 2.5 Å resolution. […]

In test [2] the test system is cystalysin. Briefly: Loss of cystalysin enzyme activity through AVG. Type of test: biochemical, Treponema denticola. The conditions noted are these: dead end ketimine PLP derivative formed with AVG. How it is done:
Overall, the PLP cofactor remains fixed in position with only the pyridine ring rotated slightly (≤ 10°), while no major structural changes regarding domain movement have been observed. These findings are contradicting an open/closed mechanism upon substrate binding, since the cystalysin-AVG structure should resemble the physiological enzyme-substrate complex. Due to the similarities in inhibition pattern and spectral changes, AVG should act on cystalysin in a similar manner as reported for CBL (Clausen et al., 1997). After transaldimination, a proton transfer from C^α to C4' is mediated by the deprotonated ε-amino group of the released Lys238, instead of protonating the leaving group. The resulting "dead end" ketimine PLP derivative is responsible for the observed 336 nm-chromophore and the total loss of enzyme activity. The inability of cystalysin to catalyze a transamination of this ketimine also accounts for the high stability of the final intermediate.

In test [3] the target is cystathionine β-lyase (CBL) (Escherichia coli, UniProt P06721). Conditions: upon treatment with AVG; cited from earlier work.
cystathionine β-lyase (CBL), sequence (P06721 2-395): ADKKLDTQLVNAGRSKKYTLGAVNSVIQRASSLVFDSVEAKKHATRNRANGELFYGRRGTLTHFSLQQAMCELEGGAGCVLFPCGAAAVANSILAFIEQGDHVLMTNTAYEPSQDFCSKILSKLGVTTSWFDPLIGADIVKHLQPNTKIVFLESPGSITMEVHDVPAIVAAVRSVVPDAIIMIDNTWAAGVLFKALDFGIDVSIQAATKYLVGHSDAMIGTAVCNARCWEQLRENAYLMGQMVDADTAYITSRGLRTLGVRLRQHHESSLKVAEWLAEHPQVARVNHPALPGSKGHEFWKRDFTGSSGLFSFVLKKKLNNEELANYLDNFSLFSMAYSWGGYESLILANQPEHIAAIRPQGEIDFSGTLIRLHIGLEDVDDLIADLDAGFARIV
The test system of test [4] is cystalysin. Conditions: substrate cleavage by cystalysin; cited from earlier work.
The target in test [5] is T1, PLP-dependent β-cystathionase (osteotoxin) (Bordetella avium, UniProt Q07703).
T1 sequence (Q07703 2-396 limits assumed): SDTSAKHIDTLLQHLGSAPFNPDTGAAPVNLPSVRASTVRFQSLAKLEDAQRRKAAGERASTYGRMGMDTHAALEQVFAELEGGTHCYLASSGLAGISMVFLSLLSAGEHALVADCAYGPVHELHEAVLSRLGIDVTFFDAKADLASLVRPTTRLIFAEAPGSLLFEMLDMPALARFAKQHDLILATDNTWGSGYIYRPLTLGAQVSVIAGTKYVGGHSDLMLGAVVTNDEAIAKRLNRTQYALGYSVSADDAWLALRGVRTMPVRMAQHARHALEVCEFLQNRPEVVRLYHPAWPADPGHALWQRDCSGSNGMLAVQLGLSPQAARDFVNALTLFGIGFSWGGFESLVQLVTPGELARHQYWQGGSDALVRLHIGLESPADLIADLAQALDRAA
Conditions: cited from earlier work.

Read-outs that look alike come from different tables or passages of the source.

Consider `NCCO/C=C/[C@H](N)C(=O)O` [AVG, L-aminoethoxyvinylglycine], for which the “pyridoxaldimine absorbance of the active enzyme at 419 nm” value in the test on cystalysin [1] was “rapid and complete loss”. For the same molecule, the enzyme activity result in the test on cystalysin [2] is listed as “total loss”. Besides, the “interaction with CBL” value in test [3] was “time-dependent formation of a long-lived, slowly dissociating enzyme-inhibitor compolex”.
As for `N[C@@H](CS)C(=O)O` [cysteine], in the test on cystalysin [4], the Kcat is 12 s⁻¹. Besides, the Km was 3.6 mM in the test on cystalysin [4], 0.077 mM in test [5] (highest affinity substrate) and 5 mM in test [5] (weak affinity substrate).
